Measured values reported in patent US20180311217A1, “METHODS OF TREATMENT AND COMPOSITIONS WITH XANTHINE OXIDASE INHIBITORS” (Takeda Pharmaceuticals U.S.A., Inc., priority 2013, published 2018).

Columns and labels:
[1] = system: hyperuricemic gout subjects with moderate to severe renal impairment; experiment: Example 1 study: eGFR using the MDRD formula; assay type: in vivo, human; conditions: for change in eGFR over time: prior use of ACEi; for change in eGFR levels over time: prior use of ARB; for change in mean eGFR levels: subjects with moderate renal impairment
Experimental: Following the Study Day 1 Visit, subjects returned to the clinic for study visits at Day 14, Months 1, 3, 6, 9 and for a final visit at Month 12/ET Visit. […] Gout flare assessments were collected at each visit. Estimated GFR by Modification of Diet in Renal Disease (MDRD) calculation was performed by the Central Laboratory at all visits. Blood pressure (clinic with standardized instruments) was measured throughout the study. Adverse events, electrocardiograms (ECGs), clinical laboratory tests, and vital signs were collected at each visit.
The secondary efficacy variables for this study included change from baseline to Month 12 in eGFR using the MDRD formula; and percentage of subjects with sUA<6.0 mg/dL at Month 12.
An ANCOVA analysis similar to the primary analysis was used for analysis of eGFR. Subgroup analyses were also summarized for eGFR as for the primary endpoint.

[2] = Study TMX-99-001: febuxostat plasma pharmacokinetics; assay type: in vivo, human; parameters: AUC24/Dose: unit not given here; conditions: mean

Cc1nc(-c2ccc(OCC(C)C)c(C#N)c2)sc1C(=O)O [Febuxostat, 2-[3-cyano-4-(2-methylpropoxy)phenyl]-4-methylthiazole-5-carboxylic acid]
eGFR using MDRD formula, Change from Baseline ([1]; 30 mg BID, Day 14): −0.99 mL/min/1.73 m^2
eGFR using MDRD formula, Mean (SD) ([1]; 30 mg BID, Day 14): 33.25 (8.042) mL/min/1.73 m^2
eGFR using MDRD formula, Change from Baseline ([1]; 30 mg BID, Month 1): −1.48 mL/min/1.73 m^2
eGFR using MDRD formula, Mean (SD) ([1]; 30 mg BID, Month 1): 32.99 (8.305) mL/min/1.73 m^2
eGFR using MDRD formula, Change from Baseline ([1]; 30 mg BID, Month 3): −0.72 mL/min/1.73 m^2
eGFR using MDRD formula, Mean (SD) ([1]; 30 mg BID, Month 3): 33.52 (9.005) mL/min/1.73 m^2
eGFR Change from Baseline, LS mean (SE) ([1]; 30 mg BID, Month 6): 0.03 (0.955) mL/min/1.73 m^2
eGFR Change from Baseline, LS mean difference (SE) from placebo group ([1]; 30 mg BID, Month 6): 1.74 (1.374) mL/min/1.73 m^2
eGFR using MDRD formula, Change from Baseline ([1]; 30 mg BID, Month 6): −0.06 mL/min/1.73 m^2
eGFR using MDRD formula, Mean (SD) ([1]; 30 mg BID, Month 6): 34.18 (8.004) mL/min/1.73 m^2
eGFR using MDRD formula, Change from Baseline ([1]; 30 mg BID, Month 9): −0.91 mL/min/1.73 m^2
eGFR using MDRD formula, Mean (SD) ([1]; 30 mg BID, Month 9): 33.33 (9.468) mL/min/1.73 m^2
eGFR Change from Baseline, LS mean (SE) ([1]; 30 mg BID, Month 12): 0.33 (1.172) mL/min/1.73 m^2
eGFR Change from Baseline, LS mean difference (SE) from placebo group ([1]; 30 mg BID, Month 12): 2.38 (1.687) mL/min/1.73 m^2
eGFR using MDRD formula, Change from Baseline ([1]; 30 mg BID, Month 12): 0.32 mL/min/1.73 m^2
eGFR using MDRD formula, Mean (SD) ([1]; 30 mg BID, Month 12): 34.56 (9.382) mL/min/1.73 m^2
eGFR Change from Baseline, LS mean (SE) ([1]; 30 mg BID, Month 12, listed as febuxostat): 0.33 mL/min/1.73 m^2
change in eGFR over time ([1]; 30 mg BID): slight improvements
change in eGFR levels over time ([1]; 30 mg BID): modest improvements
change in eGFR over time compared with placebo ([1]; 30 mg BID, sUA of 9.0 to <10.0 mg/dL at Baseline): small favorable trend
change in eGFR over time compared with placebo ([1]; 30 mg BID, sUA≥10.0 mg/dL at Baseline): small trend was apparent
change in eGFR over time compared with placebo ([1]; 30 mg BID, serum creatinine 2.0 to <2.5 mg/dL at Baseline): small favorable trend
change in mean eGFR levels ([1]; 30 mg BID, Month 12): small improvement
eGFR using MDRD formula, Change from Baseline ([1]; 40/80 mg QD, Day 14): −0.52 mL/min/1.73 m^2
eGFR using MDRD formula, Mean (SD) ([1]; 40/80 mg QD, Day 14): 33.87 (10.259) mL/min/1.73 m^2
eGFR using MDRD formula, Change from Baseline ([1]; 40/80 mg QD, Month 1): −0.29 mL/min/1.73 m^2
eGFR using MDRD formula, Mean (SD) ([1]; 40/80 mg QD, Month 1): 33.91 (10.482) mL/min/1.73 m^2
eGFR using MDRD formula, Change from Baseline ([1]; 40/80 mg QD, Month 3): 0.14 mL/min/1.73 m^2
eGFR using MDRD formula, Mean (SD) ([1]; 40/80 mg QD, Month 3): 34.34 (10.474) mL/min/1.73 m^2
eGFR Change from Baseline, LS mean (SE) ([1]; 40/80 mg QD, Month 6): 0.04 (0.969) mL/min/1.73 m^2
eGFR Change from Baseline, LS mean difference (SE) from placebo group ([1]; 40/80 mg QD, Month 6): 1.75 (1.383) mL/min/1.73 m^2
eGFR using MDRD formula, Change from Baseline ([1]; 40/80 mg QD, Month 6): −0.03 mL/min/1.73 m^2
eGFR using MDRD formula, Mean (SD) ([1]; 40/80 mg QD, Month 6): 34.18 (11.067) mL/min/1.73 m^2
eGFR using MDRD formula, Change from Baseline ([1]; 40/80 mg QD, Month 9): 1.18 mL/min/1.73 m^2
eGFR using MDRD formula, Mean (SD) ([1]; 40/80 mg QD, Month 9): 35.39 (10.930) mL/min/1.73 m^2
eGFR Change from Baseline, LS mean (SE) ([1]; 40/80 mg QD, Month 12): −0.86 (0.190) mL/min/1.73 m^2
eGFR Change from Baseline, LS mean difference (SE) from placebo group ([1]; 40/80 mg QD, Month 12): 1.19 (1.698) mL/min/1.73 m^2
eGFR using MDRD formula, Change from Baseline ([1]; 40/80 mg QD, Month 12): −0.82 mL/min/1.73 m^2
eGFR using MDRD formula, Mean (SD) ([1]; 40/80 mg QD, Month 12): 33.38 (11.949) mL/min/1.73 m^2
eGFR Change from Baseline, LS mean (SE) ([1]; 40/80 mg QD, Month 12, listed as febuxostat): −0.086 mL/min/1.73 m^2
change in eGFR over time ([1]; 40/80 mg QD): slight improvements
change in eGFR over time compared with placebo ([1]; 40/80 mg QD, sUA of 9.0 to <10.0 mg/dL at Baseline): small favorable trend
change in eGFR over time compared with placebo ([1]; 40/80 mg QD, serum creatinine 2.0 to <2.5 mg/dL at Baseline): small favorable trend
change in eGFR levels over time ([1]; 40/80 mg): moderate to large decreases
change in mean eGFR levels ([1]; 40/80 mg, Month 12): small decreases
Tmax ([2]; IR 30 mg BID): 0.70 h
Tmin ([2]; IR 30 mg BID): 24.00 h
AUC24/Dose ([2]; IR 30 mg BID, AM + PM dose (60 mg)): 103.73
Cmax ([2]; IR 30 mg BID, Cmax following AM dose): 1488.00 ng/mL
Cmax/dose ([2]; IR 30 mg BID, Cmax following AM dose/AM dose (30 mg)): 49.60 ng/mL/mg
Cmin ([2]; IR 30 mg BID, terminal phase of PM dose): 59.58 ng/mL
AUC24/Dose ([2]; IR 30 mg single dose): 84.16
Cmax ([2]; IR 30 mg single dose): 1283.54 ng/mL
Cmax/dose ([2]; IR 30 mg single dose): 42.78 ng/mL/mg
Tmax ([2]; IR 30 mg single dose): 0.89 h
Tmin ([2]; IR 30 mg single dose): 16.89 h
Cmin ([2]; IR 30 mg single dose, terminal phase at or before 24 hours): 17.50 ng/mL
AUC4-24 ([2]; IR 40 mg single dose): 941.11 ng·h/mL
AUC24 ([2]; IR 40 mg single dose): 4295.13 ng·h/mL
AUC24/Dose ([2]; IR 40 mg single dose): 107.38
Cmax ([2]; IR 40 mg single dose): 1822.11 ng/mL
Cmax/dose ([2]; IR 40 mg single dose): 45.55 ng/mL/mg
Tmax ([2]; IR 40 mg single dose): 1.19 h
Tmin ([2]; IR 40 mg single dose): 21.00 h
Cmin ([2]; IR 40 mg single dose, terminal phase at or before 24 hours): 15.13 ng/mL
AUC0-4 ([2]; IR 50 mg single dose): 3116.06 ng·h/mL
AUC24 ([2]; IR 50 mg single dose): 4374.36 ng·h/mL
AUC24/Dose ([2]; IR 50 mg single dose): 87.49
Cmax ([2]; IR 50 mg single dose): 1791.71 ng/mL
Cmax/dose ([2]; IR 50 mg single dose): 35.83 ng/mL/mg
Tmax ([2]; IR 50 mg single dose): 1.14 h
